The text below walks through data of article PMC7281206, “Cysteine Cathepsins Inhibition Affects Their Expression and Human Renal Cancer Cell Phenotype” (Cancers, 2020).

One data set relates to pancreatic cells. Particulars: 48 and 72 h; ref [58]; cited from earlier work. From the text: In general, Cts inhibitors cannot be considered very potent cytostatic molecules. H ...
In a further data set the test system is 769-P cells. The data set can be described thus: Cell viability with paclitaxel (MTT), 769-P. The following applies: PXT alone, 100 nM, 72 h. In kind it is cell-based, human. On the procedure: (§1) To evaluate the inhibitory properties of the peptides directly on the human renal cancer cells, we firstly assessed the impact of Ac-PLVE-FMK and Ac-VLPE-FMK on the cell viability of 769-P and A498 cells to determine the working concentrations for further experiments. […] Further experiments were performed using a concentration of 20 μM. To understand if the peptides could affect the activity of caspase proteases, we tested their effect on cell viability in combination with the chemotherapeutic paclitaxel (PXT) in both the cell lines. […] Next, we evaluated the effect of the peptides on renal cancer cell proteolytic activity against the fluorogenic probe Ac-PLVQ-AMC. In this case, 769-p and A498 cells were treated for 30 min with Ac-PLVE-FMK or Ac-VLPE-FMK and were then exposed for 10 min to the substrate Ac-PLVQ-AMC prior fluorescence microscopy analysis (Figure 3c,d).
The cell number was evaluated by counting viable cells using the MTT (3-(4,5-dimethylthiazol-2-yl)-2,5-diphenyltetrazolium bromide) colorimetric assay. A total of 2 × 10^4 cells/well were seeded on independent 96-well plates for each time point (0, 24, 48, and 72 h), with five replicates and treated with two inhibitors (2.5–250 μM). Then, 10 µL of the MTT reagent was added to each well, and cells were incubated for another 5 h. Next, the absorbance value was measured using a CLARIOstar® Plus plate reader (BMG Labtech, Ortenberg, Germany) at 490 nm. Triplicate wells were assayed, and S.D.s were determined.
Figure S3. Combined effect of PXT and the inhibitors on 769‐P proliferation: 769‐P cells were treated with 100 nM of PXT alone or in combination with 20 μM of Ac‐PLVE and Ac‐VLPE and cell proliferation was measured after 24, 48, and 72 h via MTT assay. Data represent the mean (± S.D.) of three independent experiments, each performed in triplicate.
Figure S4. Spheroids size and circularity: (a,b) size and circularity of 769‐P and (c,d) A498 cells upon treatment with Ac‐PLVE‐FMK and Ac‐VLPE‐FMK. Data represent the mean (± S.D.) of three independent experiments, each performed in triplicate. […]

Another data set relates to A498 cells. The data set is described as follows: Cell mortality with paclitaxel, A498. It is filed as cell-based, human. The following applies: PXT alone (data not shown). On the procedure: as §1
The cell number was evaluated by counting viable cells using the MTT (3-(4,5-dimethylthiazol-2-yl)-2,5-diphenyltetrazolium bromide) colorimetric assay. A total of 2 × 10^4 cells/well were seeded on independent 96-well plates for each time point (0, 24, 48, and 72 h), with five replicates and treated with two inhibitors (2.5–250 μM). […] Next, the absorbance value was measured using a CLARIOstar® Plus plate reader (BMG Labtech, Ortenberg, Germany) at 490 nm. Triplicate wells were assayed, and S.D.s were determined.

The next data set has as its system human recombinant CtsB. The data set can be described thus: Fluorescent protease activity assay, recombinant CtsB. It is filed as biochemical. The following applies: 20 nM CtsB, 50 μM substrate, no inhibitor. As to the method: (§2) Ac-PLVE-FMK and Ac-VLPE-FMK inhibitory properties were evaluated against human recombinant CtsL and B. These recombinant enzymes were expressed in E. coli via plasmid transformation and further purification, using nickel-nitrilotriacetic acid (Ni-NTA) sepharose. Gel zymography assay was used to provide a preliminary evaluation of the ability of these recombinant proteins to degrade the gelatin substrate previously embedded in the gel (Supplementary Figure S1). Following Coomassie staining, the Cts were detectable as single bands. As expected, a translucent area was evident, due to the substrate digestion in the proximity of the proteins. Then, the recombinant proteins were tested for their ability to digest the Triticain-α substrate Ac-PLVQ via fluorescent protease activity assay, previously optimized by our group. This probe was conjugated with the fluorogenic chromophore 7-amino-4-methylcoumarin (Ac-PLVQ-AMC). After proteolytic cleavage, it emits a detectable fluorescent signal.
(§3) Total RNA extract from retinoblastoma […] cells was used to obtain cDNA. A pair of oligonucleotides ([…] and […]) was used for the amplification of DNA fragment containing CtsB, the product of which was ligated into pET15b (Merck Millipore, Billerica, MA, USA) using NdeI and XhoI. DNA fragment containing CtsL was amplified using a pair of oligonucleotides ([…] and […]) and ligated into pET28a (+) (Merck Millipore, Billerica, MA, USA) using NheI and HindIII. […]
(§4) The activity of recombinant CtsL and B was detected by the hydrolysis of the fluorogenic substrate Ac-Pro-Leu-Val-Gln- 7-amino-4-methylcoumarin (AMC) (Pepmic Suzhou Jiangsu, China). […] The substrate was added to a final concentration of 50 μM, and its hydrolysis was continuously measured for 12 min using a CLARIOstar® Plus plate reader (BMG Labtech Ortenberg Baden-Württemberg, Germany) at excitation and emission wavelengths of 353 and 442 nm, respectively.

In a further data set the test system is human recombinant CtsL. The data set is described as follows: Fluorescent protease activity assay, recombinant CtsL. In kind it is biochemical. Particulars: 20 nM CtsL, 50 μM substrate, no inhibitor. On the procedure:
as §2, §3, §4

For the compound `CC(C)C[C@H](NC(=O)[C@H]1O[C@@H]1C(=O)O)C(=O)NCCCCN=C(N)N` [E64], the Cytotoxic effect result with pancreatic cells was “only a moderated cytotoxic effect, which reached a plateau phase after 48 and 72 h”.
For `CC(=O)O[C@H]1C(=O)[C@@]2(C)[C@H]([C@H](OC(=O)c3ccccc3)[C@]3(O)C[C@H](OC(=O)[C@H](O)[C@@H](NC(=O)c4ccccc4)c4ccccc4)C(C)=C1C3(C)C)[C@]1(OC(C)=O)CO[C@@H]1C[C@@H]2O` [PXT, paclitaxel, reference compound], the “Ability to kill cancer cells” value in the data set on 769-P cells is given as “the ability of the PXT to kill cancer cells was evident after 72 h of treatment at a concentration of 100 nM”. Moreover, the Cell mortality result in the data set on A498 cells was “did not result in high mortality”.
As to “Ac-Pro-Leu-Val-Gln- 7-amino-4-methylcoumarin (AMC) [Ac-PLVQ-AMC, fluorogenic Triticain-α substrate conjugated with 7-amino-4-methylcoumarin, reference compound]”, the Substrate cleavage entry in the data set on human recombinant CtsB and with human recombinant CtsL was “able to cleave the probe” in each case.
